Here are results for 2 molecules from US12624012B2, “14-chloro-β-elemene nitric oxide donor derivative and preparation method and use thereof” (HANGZHOU NORMAL UNIVERSITY, priority 2021, dated 2026).

Molecules are shown by their SMILES. Like-named read-outs stand apart in the source and are kept apart here.

Data set [1] in a line: In vitro NO release test (incubation with L-cysteine, OD at 550 nm). The conditions noted are these: 100 μM solution with cysteine solution, 37° C. The method in brief:
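NO release quantified against a sodium nitrite standard curve from OD at 550 nm after colour development (15 min, 37° C). Samples taken at intervals over 120 min at 37° C from equal volumes of 100 μM compound solution (pre-mixing) and cysteine solution.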

The next data set has as its system SW620. Put plainly: In vitro anti-tumor activity evaluation test (CCK-8), SW620. Conditions: SW620, 72 h; for IC50: read-out: IC50 against different tumor cell lines. Format: cell-based, human. The method in brief:
(§1)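 H520 and SW620 seeded at 5.0×10^4 cells/mL, U87MG at 3.5×10^4 cells/mL, grown 24 h, then exposed to drug for 72 h at 37 °C, 5% CO2. Viability by CCK-8 (2-3 h), OD at 450 nm; growth inhibitory rates converted to IC50.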

A further data set deals with U87MG. Put plainly: In vitro anti-tumor activity evaluation test (CCK-8), U87MG. Type of data set: cell-based, human. The conditions noted are these: U87MG, 72 h; for IC50: read-out: IC50 against different tumor cell lines. The method in brief: as §1
Another data set deals with NCI-H520. Nature of the data set: In vitro anti-tumor activity evaluation test (CCK-8), NCI-H520. The conditions noted are these: NCI-H520, 72 h; for IC50: read-out: IC50 against different tumor cell lines. Type of data set: cell-based, human. The method in brief: as §1
Data set [2] concerns human brain glioma U87MG-LUC. Nature of the data set: In vivo anti-tumor activity against malignant brain glioma (in situ U87MG-LUC model). The conditions noted are these: for growth of malignant brain gliomas in mice: after administration for 3 weeks; for brain weight / living and physical conditions of mice / tumor volume / bioluminescence signal intensity of gliomas: versus model group; for bioluminescence signal intensity of gliomas: which increases rapidly. More on the design: species or system BABLc/nude mice. An excerpt:
• Source, germ line, strain: BABLc/nude mice, provided by Shanghai Slaughter Laboratory Animal Co., Ltd., China. • Experimental animal production license: SOCK (Shanghai) 2017-0005 • Certificate of Conformity No.: 20170005040021 • Experimental animal use license: SYXK (Su) 2017-0040 • Age: 4-5 weeks • Sex: female • Number of animals: 5 animals per group, 15 animals in total Experimental Instrument: • Small animal in vivo 3D imaging system Spectrum, PerkinElmer
The cultured human brain glioma U87MG-LUC cell suspension with a concentration of 5×10^7 cells/mL was collected and each animal was inoculated in situ with 20 μL of the cell suspension. 10% chloral hydrate was injected intraperitoneally to anesthetize the mice, and the heads of the mice were fixed with a stereotaxic instrument. The skin of the head was disinfected with an alcohol swab. The skin of the head was cut along the direction of midline of the brain at its slightly right. The right hemisphere was taken as the reference point for fontanelle, 2 mm to the right of the midline, and 1 mm in front as the entry point, and the skull was ground open with a micro-abrasive drill. The cells were fully resuspended with a gun head, a syringe was used to extract the cell suspension. A vertical needle fixed by a stereotaxic instrument was used to feed 3.5 mm and quit 0.5 mm, then stood for 1 min and slowly injected the cells. After injection, the needle was stood for 1 min and slowly withdrawn. Alcohol swabs were used to disinfect the skin, and mice were put back into the feeding cages to wake up naturally after suturing the skin with stitches.
After 14 days of cell inoculation, the animals were randomly grouped, with 5 animals in each group. At the same time, each group of nude mice began to administer drugs. The drug administration protocol is shown in the group and drug administration protocol. At the end of the experiment, the nude mice were executed immediately. The brain tissues were surgically stripped, photographed, and weighed.
Two animals in each group were selected and injected intraperitoneally with Luc bioluminescence signal substrate, 100 μL/each animal, before administration, 1 week, 2 weeks, and 3 weeks after drug administration, respectively. 10 min later, the mice were anesthetized with isoflurane and placed on black box loading platform of an instrument for in vivo imaging detection to observe the bioluminescence signal of in situ tumors in mice's brains.

As to `C=C[C@]1(C)CC[C@@H](C(=C)CN(C)CCOC(=O)CCCC(=O)OCC#CCOc2no[n+]([O-])c2S(=O)(=O)c2ccccc2)C[C@H]1C(=C)CCl` [Example 4], the NO-release concentrations in data set [1] (5 min) turned out to be 12.53 µM; in data set [1] (10 min) it was 14.80 µM; in data set [1] (20 min) it was 19.55 µM; in data set [1] (30 min), 23.6 µM; in data set [1] (60 min), 42.31 µM; in data set [1] (90 min) it was 66.97 µM. In data set [1] (120 min), the NO-release concentrations came to 93.18 µM. In addition, the inhibition at 1 µM in the data set on SW620 (Homo sapiens, SW-620, 1 μM, read-out: Inhibitory rates against tumor cell lines) stood at 47.5 ± 3.7%; with U87MG (Homo sapiens, U-87 MG, 1 μM, read-out: Inhibitory rates against tumor cell lines) it was 55.5 ± 1.9%; in the data set with NCI-H520 (Homo sapiens, 1 μM, read-out: Inhibitory rates against tumor cell lines) it was 48.7 ± 2%. In addition, the IC50 with SW620 (Homo sapiens, SW-620) came to 0.858 ± 0.033 µM; with U87MG (Homo sapiens, U-87 MG) it was 0.369 ± 0.013 µM; in the data set on NCI-H520 (Homo sapiens), 0.719 ± 0.017 µM. Also, the “growth of malignant brain gliomas in mice” value in data set [2] is “effectively inhibited”. In addition, in data set [2] (last week of administration (3 weeks)), the “blocking of tumor growth” value is on record as above 90%. In data set [2], the brain weight result is recorded as “significantly lighter than that of the model group”. Also, the “living and physical conditions of mice” value in data set [2] is “much better than the model group”. Further, the tumor volume entry in data set [2] was “significantly smaller than that in the model group”. Besides, the “bioluminescence signal intensity of gliomas” value in data set [2] is “declines dramatically”.

As to `C=C[C@]1(C)CC[C@@H](C(=C)C)C[C@H]1C(=C)C` [β-elemene], the “Inhibitory rates against tumor cell lines” value (“Inhibitory rates” for short) in the data set with SW620 (1 μM) is listed as 2.5 ± 4.1%. In addition, the IC50 in the data set with SW620 was above 100 µM. Further, the “Inhibitory rates” value with U87MG (1 μM) is recorded as 4.3 ± 2.2%. The IC50 in the data set on U87MG was above 100 µM. Moreover, in the data set with NCI-H520 (1 μM), the “Inhibitory rates” value turned out to be 3.2 ± 0.7%. Also, in the data set on NCI-H520, the IC50 is above 100 µM. In data set [2], the “growth of malignant brain gliomas in mice” value is reported as “effectively inhibited”; the brain weight result is given as “significantly lighter than that of the model group”; the “living and physical conditions of mice” value is recorded as “much better than the model group”; the tumor volume result was “significantly smaller than that in the model group”. The “bioluminescence signal intensity of gliomas” value in data set [2] is given as “declines dramatically”. The “inhibitory activity (bioluminescence signal of glioma)” value in data set [2] (first week of administration) is above 20%.

What is called IC50 is the midpoint of a concentration-inhibition curve.
